In patent publication US20230295235A1, “COMPOUNDS TARGETING ALPHA4-BETA7 INTEGRIN” (ZEALAND PHARMA A/S, priority 2020, published 2023):

Columns and labels:
[1] = system: integrin α4β7+ T helper memory lymphocytes in mesenteric lymph nodes; assay: In vivo T lymphocyte trafficking analysis in DSS mouse model of colitis
Method: Animal care: The animal care facility employed is accredited by the Canadian Council on Animal Care (CCAC). This study was approved by a certified Animal Care Committee and complied with CACC standards and regulations governing the use of animals for research. The animals were housed under standardized environmental conditions. A standard certified commercial rodent diet was provided ad libitum. Tap water was provided ad libitum at all times.
Dextran sulfate sodium (DSS) was administered to C57BL/6 female mice for five days through addition to their drinking water at 3%. Body weight and disease activity index (“DAI”) were measured on day 5 in order to distribute DSS-treated animals in uniform groups prior to dosing. DAI was scored based on the severity of three specific symptoms associated with colitis: 1- blood in stool (negative hemoccult, positive hemoccult, blood traces in stool visible, rectal bleeding); 2- stool consistency (normal, soft but still formed, very soft, diarrhea); 3- body weight loss.
From day 6 to day 9, the compound of Example 1 or the vehicle were administered orally daily at 5 mL/kg. […] Cell populations were then analyzed using FACSCanto cytometer and gating on CD4+, CD44^hi, CD45RB^low, α4β7+.
Statistical analysis was performed using GraphPad Prism. Differences among groups were evaluated by two-way ANOVA, with a 95% confidence interval. […]

[2] = system: DSS induced ulcerative colitis; assay: DSS induced chronic colitis (ulcerative colitis) mouse model; assay type: in vivo
Method: The current study was conducted in the mice model of dextran Sodium Sulfate (DSS) induced ulcerative colitis (UC). DSS induces chronic colitis in experimental animals when given orally in drinking water for 7 days followed by no DSS in drinking water. Chronic intestinal inflammation is associated with body weight loss, diarrhea, blood in the stool and the infiltration of leucocytes from the blood to intestinal tissue. Among those cells, subpopulations of T lymphocytes such as Th1 and Th17 play an important role in the initiation and chronicity of inflammation. Trafficking of T cells from blood to target tissue is a complex process that is controlled by molecularly distinct adhesion and signaling steps. As such, the α4β7 and MAdCAM-1 adhesion mechanism may be closely involved in lymphocyte trafficking to the site of inflammation in the gut.
Evaluation of the therapeutic potential of the compound of Example 1 (cpd 1) in a mouse model of Dextran Sodium Sulfate (DSS) induced ulcerative colitis (UC)
Female C57BI/6 mice (Charles River, St-Constant, Qc), weighting 15-20 g at delivery were used for this study. Following arrival in the animal facility, all animals were subjected to a general health evaluation. […]
Specific symptoms associated to UC were scored based on the severity of each particular symptoms: • 1- blood in stool (negative hemoccult, positive hemoccult, visible blood traces in stool, rectal bleeding); • 2- stool consistency (normal, soft, diarrhea); • 3- body weight loss (score 0: 0-1 %; 1: 1.5-5%; 2: 5.5-10%; 3: 10.5-15 %; 4: 15.5-20 %; 5: >20%). […]
Once the mouse was euthanized, the colon was collected, and its length was measured. Lesion length was also measured. Colon lesions was scored macroscopically based on inflammation, thickening and vascularization to give an overall macroscopic inflammation score of each animal in the study. […]
Statistical differences among groups were determined using a two-way ANOVA, followed by a post-hoc analysis, using Tukey’s multiple comparison test, to compare each group to the DSS+vehicle control group. […]

CC(C)C[C@@H]1NC(=O)c2ccc(-c3ccc(N4CCN(C(=O)c5ccccc5-c5ccccc5C(=O)N5CCN(c6ccc(-c7ccc8cc7CNC(=O)[C@@H]7CCCN7[C@H](C(=O)NC(C)(C)C)[C@H](C)NC(=O)[C@H]([C@@H](C)O)NC(=O)[C@H](CC(=O)O)NC(=O)[C@H](CC(C)C)NC8=O)cc6)CC5)CC4)cc3)c(c2)CNC(=O)[C@@H]2CCCN2[C@H](C(=O)NC(C)(C)C)[C@H](C)NC(=O)[C@H]([C@@H](C)O)NC(=O)[C@H](CC(=O)O)NC1=O [Example 1, 2,2′-((S,S,S,S,S,S,1^2,8S,11S,14S,17S,18S)-((([1,1′-Biphenyl]-2,2′-Dicarbonyl)-Bis(Piperazine-4,1-Diyl))Bis(4,1-Phenylene))Bis(18-(Tert-Butylcarbamoyl)-14-((R)-1-Hydroxyethyl)-8-Isobutyl-17-Methyl-2,6,9,12,15-Pentaoxo-3,7,10,13,16-Pentaaza-1(2,1)-Pyrrolidina-5(1,3)-Benzenacyclooctadecaphane-5^6,11-Diyl))-Diacetic Acid]
reduction in α4β7+ T cells in the mesenteric lymph nodes ([1]; 100 mg/kg orally daily day 6 to 9, DSS-treated C57BL/6 female mice, vs DSS alone): 60%
detection of integrin α4β7+ T helper memory lymphocytes in the mesenteric lymph nodes (MLN) ([1]; 10, 30 or 100 mg/kg orally daily day 6 to 9, DSS-treated mice): reduced the detection of integrin α4β7+ T helper memory lymphocytes
effect on DAI score ([2]; 100 mg/kg p.o. once daily day 0-14, DSS mice, vs DSS + vehicle): did not lead to any beneficial effect
macroscopic inflammation score, % less than DSS + vehicle ([2]; 100 mg/kg p.o. once daily day 0-14, colon at day 14, significant difference): around 30%
MPO U/g colon protein, % less than DSS + vehicle ([2]; 100 mg/kg p.o. once daily day 0-14, medio-distal colon, ELISA, not statistically significant): approximately 49%
